Source: ChEMBL document CHEMBL4507276 (2021)

Key:
[1] = test system: Receptor-type tyrosine-protein kinase FLT3 (Homo sapiens), P36888 [R834Q]; settings: Compound concentration 1000.0 nM
[2] = test system: Epidermal growth factor receptor (Homo sapiens), P00533 [UNDEFINED MUTATION]; settings: Compound concentration 1000.0 nM
[3] = biological target: Receptor-type tyrosine-protein kinase FLT3 (Homo sapiens) (UniProt P36888); settings: Compound concentration 1000.0 nM
[4] = biological target: MAP kinase-interacting serine/threonine-protein kinase 2 (Homo sapiens) (UniProt Q9HBH9); settings: Compound concentration 1000.0 nM
[5] = biological target: T1, 5-hydroxytryptamine receptor 2C (Homo sapiens) (UniProt P28335); settings: Compound concentration 10.0 uM
T1 sequence (whole entry): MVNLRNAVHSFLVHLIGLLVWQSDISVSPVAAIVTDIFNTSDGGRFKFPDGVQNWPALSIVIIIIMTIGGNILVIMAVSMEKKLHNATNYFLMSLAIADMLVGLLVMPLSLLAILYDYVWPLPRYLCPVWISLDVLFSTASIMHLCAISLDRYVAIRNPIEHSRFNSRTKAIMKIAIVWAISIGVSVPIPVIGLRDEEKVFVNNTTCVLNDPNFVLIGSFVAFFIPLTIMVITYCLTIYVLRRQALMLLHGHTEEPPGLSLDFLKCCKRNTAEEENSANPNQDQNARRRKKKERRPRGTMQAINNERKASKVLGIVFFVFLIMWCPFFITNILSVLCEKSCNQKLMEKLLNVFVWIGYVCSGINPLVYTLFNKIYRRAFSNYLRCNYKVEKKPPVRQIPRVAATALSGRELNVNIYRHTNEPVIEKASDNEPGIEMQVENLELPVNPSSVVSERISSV

[6] = biological target: Fibroblast growth factor receptor 2 (Homo sapiens) (UniProt P21802); settings: Compound concentration 1000.0 nM
[7] = biological target: Mitogen-activated protein kinase 10 (Homo sapiens) (UniProt P53779); settings: Compound concentration 1000.0 nM
[8] = biological target: Phosphatidylinositol 4-phosphate 5-kinase type-1 gamma (Homo sapiens) (UniProt O60331); settings: Compound concentration 1000.0 nM
[9] = biological target: Serine/threonine-protein kinase 32B (Homo sapiens) (UniProt Q9NY57); settings: Compound concentration 1000.0 nM
[10] = biological target: Serine/threonine-protein kinase WNK4 (Homo sapiens) (UniProt Q96J92); settings: Compound concentration 1000.0 nM
[11] = biological target: Serine/threonine-protein kinase PLK4 (Homo sapiens) (UniProt O00444); settings: Compound concentration 1000.0 nM
[12] = biological target: Tyrosine-protein kinase Fyn (Homo sapiens) (UniProt P06241); settings: Compound concentration 1000.0 nM
[13] = biological target: T2, MAP kinase-activated protein kinase 5 (Homo sapiens) (UniProt Q8IW41); settings: Compound concentration 1000.0 nM
T2 sequence (whole entry): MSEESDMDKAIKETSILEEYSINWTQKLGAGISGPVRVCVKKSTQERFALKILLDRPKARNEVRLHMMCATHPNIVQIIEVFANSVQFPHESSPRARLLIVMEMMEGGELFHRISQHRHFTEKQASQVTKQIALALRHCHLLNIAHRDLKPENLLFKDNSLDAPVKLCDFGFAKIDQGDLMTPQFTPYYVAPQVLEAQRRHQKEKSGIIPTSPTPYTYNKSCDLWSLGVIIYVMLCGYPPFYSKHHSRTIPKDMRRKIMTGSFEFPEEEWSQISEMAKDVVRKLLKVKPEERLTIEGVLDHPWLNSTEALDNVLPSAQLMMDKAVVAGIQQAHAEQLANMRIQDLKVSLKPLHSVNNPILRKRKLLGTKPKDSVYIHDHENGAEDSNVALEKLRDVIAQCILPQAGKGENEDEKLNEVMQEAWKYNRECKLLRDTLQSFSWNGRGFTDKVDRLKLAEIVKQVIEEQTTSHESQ

[14] = biological target: Calcium/calmodulin-dependent protein kinase kinase 1 (Homo sapiens) (UniProt Q8N5S9); settings: Compound concentration 1000.0 nM
[15] = biological target: T3, Tyrosine-protein kinase receptor TYRO3 (Homo sapiens) (UniProt Q06418); settings: Compound concentration 1000.0 nM
T3 sequence (whole entry): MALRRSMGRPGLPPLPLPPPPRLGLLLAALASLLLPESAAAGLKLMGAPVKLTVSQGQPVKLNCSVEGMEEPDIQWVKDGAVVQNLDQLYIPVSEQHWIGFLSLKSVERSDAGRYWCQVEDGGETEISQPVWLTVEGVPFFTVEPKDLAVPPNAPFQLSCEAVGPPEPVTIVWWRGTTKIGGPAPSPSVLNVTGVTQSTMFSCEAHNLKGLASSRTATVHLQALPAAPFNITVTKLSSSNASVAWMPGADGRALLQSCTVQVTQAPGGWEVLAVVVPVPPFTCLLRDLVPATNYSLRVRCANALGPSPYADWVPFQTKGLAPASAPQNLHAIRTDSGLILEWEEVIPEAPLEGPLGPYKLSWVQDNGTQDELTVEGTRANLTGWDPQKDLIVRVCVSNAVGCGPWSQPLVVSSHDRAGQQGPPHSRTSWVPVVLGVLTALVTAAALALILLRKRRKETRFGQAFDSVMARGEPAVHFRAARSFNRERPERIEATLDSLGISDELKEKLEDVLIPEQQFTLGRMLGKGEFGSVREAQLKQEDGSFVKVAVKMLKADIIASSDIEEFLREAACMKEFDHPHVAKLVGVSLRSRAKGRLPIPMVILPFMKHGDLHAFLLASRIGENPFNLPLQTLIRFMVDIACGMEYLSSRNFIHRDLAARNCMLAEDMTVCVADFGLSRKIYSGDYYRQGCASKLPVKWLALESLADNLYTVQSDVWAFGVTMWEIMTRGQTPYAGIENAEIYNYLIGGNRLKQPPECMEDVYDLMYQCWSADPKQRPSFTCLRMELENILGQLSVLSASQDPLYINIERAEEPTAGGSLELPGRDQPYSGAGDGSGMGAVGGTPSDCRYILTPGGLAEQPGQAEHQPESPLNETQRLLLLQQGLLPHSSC

Chain of Mitogen-activated protein kinase 10 (Homo sapiens) (P53779 whole entry): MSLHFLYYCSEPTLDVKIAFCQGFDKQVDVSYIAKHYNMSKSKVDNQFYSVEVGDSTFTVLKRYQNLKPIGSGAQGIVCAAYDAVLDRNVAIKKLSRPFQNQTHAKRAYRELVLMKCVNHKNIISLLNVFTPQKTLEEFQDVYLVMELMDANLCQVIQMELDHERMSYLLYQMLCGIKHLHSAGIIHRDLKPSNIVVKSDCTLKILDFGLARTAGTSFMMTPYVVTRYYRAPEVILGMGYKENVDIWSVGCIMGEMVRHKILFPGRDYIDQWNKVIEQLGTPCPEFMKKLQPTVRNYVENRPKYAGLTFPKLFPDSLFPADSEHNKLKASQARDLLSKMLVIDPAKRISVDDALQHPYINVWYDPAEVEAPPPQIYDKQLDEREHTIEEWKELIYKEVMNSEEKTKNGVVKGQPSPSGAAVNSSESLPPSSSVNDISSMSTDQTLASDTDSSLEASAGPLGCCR
Chain of Epidermal growth factor receptor (Homo sapiens), P00533 [UNDEFINED MUTATION] (P00533 whole entry, looked up, change not shown): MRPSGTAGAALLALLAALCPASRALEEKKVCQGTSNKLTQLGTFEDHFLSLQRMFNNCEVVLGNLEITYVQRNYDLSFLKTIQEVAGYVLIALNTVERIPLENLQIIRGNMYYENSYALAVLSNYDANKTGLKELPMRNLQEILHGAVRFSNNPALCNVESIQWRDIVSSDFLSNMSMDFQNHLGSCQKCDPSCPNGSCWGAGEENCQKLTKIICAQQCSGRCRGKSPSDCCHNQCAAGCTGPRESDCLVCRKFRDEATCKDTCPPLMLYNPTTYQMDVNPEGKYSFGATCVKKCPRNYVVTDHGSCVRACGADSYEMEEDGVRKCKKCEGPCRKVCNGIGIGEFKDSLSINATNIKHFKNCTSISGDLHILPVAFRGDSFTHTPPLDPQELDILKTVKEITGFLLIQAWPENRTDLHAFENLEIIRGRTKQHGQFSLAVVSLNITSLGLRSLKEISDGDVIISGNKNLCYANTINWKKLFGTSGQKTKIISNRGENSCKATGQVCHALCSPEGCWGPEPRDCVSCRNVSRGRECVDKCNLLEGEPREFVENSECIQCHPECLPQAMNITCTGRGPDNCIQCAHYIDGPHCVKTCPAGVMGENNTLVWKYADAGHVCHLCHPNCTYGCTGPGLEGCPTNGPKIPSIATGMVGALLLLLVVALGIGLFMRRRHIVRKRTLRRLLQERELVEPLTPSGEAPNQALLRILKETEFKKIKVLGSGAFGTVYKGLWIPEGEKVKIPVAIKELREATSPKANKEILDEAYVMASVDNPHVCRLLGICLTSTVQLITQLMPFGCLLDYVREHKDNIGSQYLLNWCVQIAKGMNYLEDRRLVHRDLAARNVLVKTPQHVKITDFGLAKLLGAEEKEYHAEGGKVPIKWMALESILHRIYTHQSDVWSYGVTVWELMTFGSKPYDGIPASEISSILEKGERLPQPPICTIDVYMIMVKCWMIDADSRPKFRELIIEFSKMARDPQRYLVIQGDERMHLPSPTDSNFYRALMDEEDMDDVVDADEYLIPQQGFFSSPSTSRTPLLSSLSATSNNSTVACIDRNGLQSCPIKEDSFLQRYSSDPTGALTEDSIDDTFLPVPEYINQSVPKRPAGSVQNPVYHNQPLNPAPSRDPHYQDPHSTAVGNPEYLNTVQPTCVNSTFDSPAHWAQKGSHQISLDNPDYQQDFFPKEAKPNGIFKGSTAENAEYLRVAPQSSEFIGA
Chain of Phosphatidylinositol 4-phosphate 5-kinase type-1 gamma (Homo sapiens) (O60331 whole entry): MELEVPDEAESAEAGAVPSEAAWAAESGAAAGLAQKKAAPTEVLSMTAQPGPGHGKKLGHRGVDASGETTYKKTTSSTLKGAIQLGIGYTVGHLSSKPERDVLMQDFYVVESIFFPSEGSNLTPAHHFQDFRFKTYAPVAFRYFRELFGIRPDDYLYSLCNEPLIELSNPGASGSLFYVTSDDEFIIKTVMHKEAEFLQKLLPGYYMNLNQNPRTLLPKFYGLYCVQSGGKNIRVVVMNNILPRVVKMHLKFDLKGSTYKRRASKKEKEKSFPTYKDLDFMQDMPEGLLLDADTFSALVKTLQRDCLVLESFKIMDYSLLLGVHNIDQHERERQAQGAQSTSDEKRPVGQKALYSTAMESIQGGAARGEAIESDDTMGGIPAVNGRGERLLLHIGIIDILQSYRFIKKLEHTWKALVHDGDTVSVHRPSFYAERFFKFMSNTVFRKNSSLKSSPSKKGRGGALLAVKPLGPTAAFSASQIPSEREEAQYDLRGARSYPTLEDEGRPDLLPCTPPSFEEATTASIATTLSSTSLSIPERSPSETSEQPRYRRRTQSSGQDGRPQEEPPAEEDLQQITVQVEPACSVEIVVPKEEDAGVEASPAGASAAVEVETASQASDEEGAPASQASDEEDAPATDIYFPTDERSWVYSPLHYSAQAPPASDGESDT
Chain of Serine/threonine-protein kinase PLK4 (Homo sapiens) (O00444 whole entry): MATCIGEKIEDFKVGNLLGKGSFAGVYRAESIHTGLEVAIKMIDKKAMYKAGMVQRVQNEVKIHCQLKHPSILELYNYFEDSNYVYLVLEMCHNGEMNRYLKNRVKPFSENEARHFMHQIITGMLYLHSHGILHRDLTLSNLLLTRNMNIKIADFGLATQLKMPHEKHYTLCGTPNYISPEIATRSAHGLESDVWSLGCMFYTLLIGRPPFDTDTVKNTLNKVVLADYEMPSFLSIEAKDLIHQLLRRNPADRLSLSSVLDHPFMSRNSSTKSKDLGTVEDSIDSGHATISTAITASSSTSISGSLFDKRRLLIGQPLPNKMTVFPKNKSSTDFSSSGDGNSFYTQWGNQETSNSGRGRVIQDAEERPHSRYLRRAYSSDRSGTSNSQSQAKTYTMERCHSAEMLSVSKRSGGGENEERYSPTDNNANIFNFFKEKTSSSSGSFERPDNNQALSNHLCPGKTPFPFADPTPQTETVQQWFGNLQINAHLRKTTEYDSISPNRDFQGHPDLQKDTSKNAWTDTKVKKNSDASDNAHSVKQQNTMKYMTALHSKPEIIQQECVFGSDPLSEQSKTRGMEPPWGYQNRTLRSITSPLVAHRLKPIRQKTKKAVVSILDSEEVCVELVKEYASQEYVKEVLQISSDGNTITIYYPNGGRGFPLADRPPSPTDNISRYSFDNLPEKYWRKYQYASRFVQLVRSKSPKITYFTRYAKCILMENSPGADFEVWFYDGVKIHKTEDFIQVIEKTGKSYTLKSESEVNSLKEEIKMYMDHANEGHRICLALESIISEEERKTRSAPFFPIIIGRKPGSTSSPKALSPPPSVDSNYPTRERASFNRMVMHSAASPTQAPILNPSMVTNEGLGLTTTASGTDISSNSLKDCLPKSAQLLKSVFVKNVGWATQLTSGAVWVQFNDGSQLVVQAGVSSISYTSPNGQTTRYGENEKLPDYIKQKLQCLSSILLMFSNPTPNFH
Chain of Fibroblast growth factor receptor 2 (Homo sapiens) (P21802 22-821 limits assumed): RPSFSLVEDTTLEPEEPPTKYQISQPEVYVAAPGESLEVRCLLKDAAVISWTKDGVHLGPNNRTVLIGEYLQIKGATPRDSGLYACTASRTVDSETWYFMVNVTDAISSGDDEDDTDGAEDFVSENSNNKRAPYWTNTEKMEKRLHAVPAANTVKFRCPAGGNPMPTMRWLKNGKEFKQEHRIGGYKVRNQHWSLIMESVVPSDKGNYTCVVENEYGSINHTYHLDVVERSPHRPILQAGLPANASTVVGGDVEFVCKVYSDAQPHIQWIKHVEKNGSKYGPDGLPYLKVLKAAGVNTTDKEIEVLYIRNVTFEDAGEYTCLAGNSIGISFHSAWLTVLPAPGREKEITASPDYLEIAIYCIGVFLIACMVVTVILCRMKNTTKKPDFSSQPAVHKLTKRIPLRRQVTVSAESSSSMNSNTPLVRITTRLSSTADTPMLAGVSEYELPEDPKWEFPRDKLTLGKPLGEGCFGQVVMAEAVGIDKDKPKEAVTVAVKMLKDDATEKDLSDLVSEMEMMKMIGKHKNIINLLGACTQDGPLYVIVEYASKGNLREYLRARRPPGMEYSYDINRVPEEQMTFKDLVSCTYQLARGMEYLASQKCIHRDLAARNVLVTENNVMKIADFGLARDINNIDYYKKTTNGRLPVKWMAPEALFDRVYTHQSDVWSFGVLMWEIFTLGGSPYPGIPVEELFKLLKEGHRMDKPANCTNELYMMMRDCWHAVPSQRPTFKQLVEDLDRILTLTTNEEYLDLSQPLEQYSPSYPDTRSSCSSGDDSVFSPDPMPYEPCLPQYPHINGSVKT
Chain of Tyrosine-protein kinase Fyn (Homo sapiens) (P06241 2-537 limits assumed): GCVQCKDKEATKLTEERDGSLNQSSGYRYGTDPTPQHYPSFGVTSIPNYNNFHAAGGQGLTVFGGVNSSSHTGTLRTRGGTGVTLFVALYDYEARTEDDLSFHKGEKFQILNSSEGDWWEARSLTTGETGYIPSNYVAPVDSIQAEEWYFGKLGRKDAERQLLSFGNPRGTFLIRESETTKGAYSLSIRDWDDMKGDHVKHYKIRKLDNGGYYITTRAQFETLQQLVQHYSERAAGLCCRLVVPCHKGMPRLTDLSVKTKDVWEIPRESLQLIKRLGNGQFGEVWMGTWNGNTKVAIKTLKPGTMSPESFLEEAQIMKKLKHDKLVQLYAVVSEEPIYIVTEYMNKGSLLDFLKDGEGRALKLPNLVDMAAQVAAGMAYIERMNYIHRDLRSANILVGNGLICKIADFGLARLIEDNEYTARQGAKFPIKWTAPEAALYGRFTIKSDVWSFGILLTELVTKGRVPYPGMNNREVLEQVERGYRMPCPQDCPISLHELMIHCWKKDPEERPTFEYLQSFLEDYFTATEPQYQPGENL
Chain of Serine/threonine-protein kinase 32B (Homo sapiens) (Q9NY57 whole entry): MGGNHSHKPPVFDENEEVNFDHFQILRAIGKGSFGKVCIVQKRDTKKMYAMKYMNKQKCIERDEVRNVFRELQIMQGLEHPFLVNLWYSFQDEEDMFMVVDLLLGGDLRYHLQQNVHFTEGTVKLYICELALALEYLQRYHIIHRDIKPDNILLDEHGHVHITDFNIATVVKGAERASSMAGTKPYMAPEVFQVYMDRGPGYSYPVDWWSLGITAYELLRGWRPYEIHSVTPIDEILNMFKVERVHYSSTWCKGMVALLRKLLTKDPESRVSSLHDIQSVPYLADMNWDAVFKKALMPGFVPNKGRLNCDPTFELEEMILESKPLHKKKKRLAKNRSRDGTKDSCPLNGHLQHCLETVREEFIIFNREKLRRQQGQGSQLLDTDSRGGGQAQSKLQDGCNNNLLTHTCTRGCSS

CN(C)C(=O)Cn1cc(-c2nc(C3(c4ccc(-c5cnc(N)nc5)cc4)CC3)no2)cn1 [BI 0153]
inactive: residual activity [1] 90% | residual activity [2] 100% | residual activity [3] 81% | residual activity [4] 94% | inhibition [5] 9.74% | residual activity [6] 100% | residual activity [7] 93% | residual activity [8] 96% | residual activity [9] 100% | residual activity [10] 80% | residual activity [11] 100% | residual activity [12] 100% | residual activity [13] 92% | residual activity [14] 100% | residual activity [15] 83%

CN(C)C(=O)Cn1cc(-c2nc([C@@](C)(c3ccc(-c4cnc(N)nc4)cc3)C3CC3)no2)cn1 [BI 665915]
inactive: residual activity [1] 87% | residual activity [2] 100% | residual activity [3] 82% | residual activity [4] 88% | inhibition [5] 0.496% | residual activity [6] 85% | residual activity [7] 94% | residual activity [8] 100% | residual activity [9] 100% | residual activity [10] 93% | residual activity [11] 74% | residual activity [12] 86% | residual activity [13] 94% | residual activity [14] 100% | residual activity [15] 100%
